What all share (type): cell-based
Experiment [1] concerns the target T1, IKZF1 Ikaros (Homo sapiens, UniProt Q13422+Q96SW2). Kind of experiment: Human Regulatory T Cell Degradation Assay. Details: Foxp3-BV421, HELIOS-PE-Cy7, EOS-PE, IKAROS-PECF594, AIOLOS-AF647; endogenous in cells; host or cells: human PBMC from healthy donors (CD8+ T cells gated by flow cytometry). The following applies: human regulatory T cells, 20 hours; for DC50: vs DMSO alone.

Experiment [2] addresses T2, IKZF3 Aiolos (Homo sapiens, UniProt Q96SW2+Q9UKT9). As to the kind of experiment: Human Regulatory T Cell Degradation Assay. The following applies: human regulatory T cells, 20 hours; for DC50: vs DMSO alone. Also on record: Foxp3-BV421, HELIOS-PE-Cy7, EOS-PE, IKAROS-PECF594, AIOLOS-AF647; endogenous in cells; host or cells: human PBMC from healthy donors (CD8+ T cells gated by flow cytometry).

Experiment [3] deals with T1, IKZF1 Ikaros. As to the kind of experiment: Jurkat Cellular Degradation Assay. Also on record: fluorescently labelled antibodies against Helios, Ikaros and Aiolos; endogenous in cells; host or cells: Jurkat cells. The following applies: Jurkat cells, 24 h; for DC50: 50% reduction of protein vs DMSO alone; for IKZF1 Ikaros max % deg. observed: 100% = complete degradation. On the procedure:
(§1) Jurkat cells were plated at 80,000 cells/well in 40 µL RPMI + 10% FBS in a 384-well cell culture plate prior to using acoustic dispensing technology for adding a compound of interest. Cell cultures were incubated for 24 h at 37 °C and 5% CO2. In order to facilitate analysis, cell cultures were spun down at 200 rpm for 5 min and the supernatant was discarded. After shaking the plate to dislodge the cell pellet, cells were resuspended in 50 µL of Fixation Buffer (eBioscience FoxP3 buffer set 00-5523-00) for 60 min at room temperature. After centrifuging and discarding the supernatant, cells were permeabilized with 50 µL of Permeabilization buffer (eBioscience FoxP3 buffer set 00-5523-00) for 10 min at room temperature. Following permeabilization, cells were spun down and the supernatant was replaced with 20 µL fluorescently labelled antibodies against Helios, Ikaros and Aiolos or corresponding Isotype controls in 1× Permeabilization buffer (Ikaros-Alexa488 [Biolegend, Cat #368408, 1:50], Helios-PE [CST, Cat #29360, 1:50]. Aiolos-Alexa647 [Biolegend, Cat #371106 Biolegend, 1:25]) and staining reactions were incubated for 1 h at room temperature while protected from light. Subsequently, 30 µL of 1× Permeabilization buffer was added prior to centrifuging the cells and discarding the supernatant. Stained cells were resuspended in 25 µL of flow cytometry staining buffer [PBS + 0.2% bovine serum albumin (BSA)] and analyzed using an Intellicyt Ique Plus flow cytometer. TABLE A-1

In experiment [4] the target is T3, IKZF2 Helios (Homo sapiens, UniProt Q96SW2+Q9UKS7). As to the kind of experiment: Jurkat Cellular Degradation Assay. Also on record: fluorescently labelled antibodies against Helios, Ikaros and Aiolos; endogenous in cells; host or cells: Jurkat cells. The following applies: for DC50: 50% reduction of protein vs DMSO alone; for IKZF2** Helios max % deg. observed: Table E summary, Jurkat Cellular Degradation Assay (A-1). On the procedure:
as §1

For experiment [5], the target named is T2, IKZF3 Aiolos. Kind of experiment: Jurkat Cellular Degradation Assay. Also on record: fluorescently labelled antibodies against Helios, Ikaros and Aiolos; endogenous in cells; host or cells: Jurkat cells. Particulars: Jurkat cells, 24 h; for DC50: 50% reduction of protein vs DMSO alone; for IKZF3 Aiolos max % deg. observed: 100% = complete degradation. On the procedure: as §1

Experiment [6] addresses T3, IKZF2 Helios. Kind of experiment: Human Regulatory T Cell Degradation Assay. Details: endogenous in cells; host or cells: primary human CD4+CD127lowCD25+ Treg cells from healthy leukopaks. Particulars: human regulatory T cells, 20 hours; for DC50: vs DMSO alone. On the procedure:
Cryopreserved human regulatory T cells were thawed in RPMI + 10%FBS + 20 ng/mL IL-2. After being spun at 1200 rpm for 5 mins, the cells were resuspended in RPMI + 10% FBS+ 20 ng/mL and rested at 37 °C with 5% CO2 for 3 hours. The cells were then plated at 40,000 cells/well in 40 µL RPMI + 10% FBS + 20 ng/mL human IL-2 in a 384 well cell culture plate prior to using acoustic dispensing technology (ECHO 555) for adding compounds of interest. Cell cultures were incubated for 20 hours at 37 °C and 5% CO2. In order to facilitate analysis, cell cultures were spun down at 1200 rpm for 5 minutes and the supernatant was discarded using an EL406 plate washer. After washing three times with 70 µL PBS, cell pellets were resuspended in 50 µL of near IR viability staining solution (Life Technologies, Cat# L34975) and incubated for 30 minutes on ice protected from light. Cells were washed three times with 70 µL PBS + 0.5% BSA using an EL406 plate washer. After shaking the plate to dislodge the cell pellet, cells were resuspended in 50 µL of Fixation Buffer (eBioScience FoxP3 buffer set 00-5523-00) for 60 minutes at room temperature. After centrifuging and discarding the supernatant, cells were permeabilized with 50 µL of permeabilization buffer (eBioScience FoxP3 buffer set 00-5523-00) for 10 minutes at room temperature. Following permeabilization, cells were spun down and the supernatant was replaced with 30 µL fluorescently labelled antibodies against the intracellular targets Helios (Helios-APC [BioLegend, Cat# 137222, 1:50]), Aiolos, and Ikaros lx Permeabilization buffer and staining reactions were incubated for 1 hour at room temperature; protected from light. Subsequently, 30 µL of lx Permeabilization buffer was added prior to centrifuging the cells and discarding the supernatant. Stained cells were resuspended in 30 µL of flow cytometry staining buffer (PBS + 0.5%BSA) and analyzed using an Intellicyt Ique Plus flow cytometer. TABLE B-1

The next experiment deals with T4, IKZF4 Eos (Homo sapiens, UniProt Q96SW2+Q9H2S9).
T4 construct: endogenous in cells; host or cells: primary human CD4+CD127lowCD25+ Treg cells from healthy leukopaks
T4 sequence (Q9H2S9 whole entry): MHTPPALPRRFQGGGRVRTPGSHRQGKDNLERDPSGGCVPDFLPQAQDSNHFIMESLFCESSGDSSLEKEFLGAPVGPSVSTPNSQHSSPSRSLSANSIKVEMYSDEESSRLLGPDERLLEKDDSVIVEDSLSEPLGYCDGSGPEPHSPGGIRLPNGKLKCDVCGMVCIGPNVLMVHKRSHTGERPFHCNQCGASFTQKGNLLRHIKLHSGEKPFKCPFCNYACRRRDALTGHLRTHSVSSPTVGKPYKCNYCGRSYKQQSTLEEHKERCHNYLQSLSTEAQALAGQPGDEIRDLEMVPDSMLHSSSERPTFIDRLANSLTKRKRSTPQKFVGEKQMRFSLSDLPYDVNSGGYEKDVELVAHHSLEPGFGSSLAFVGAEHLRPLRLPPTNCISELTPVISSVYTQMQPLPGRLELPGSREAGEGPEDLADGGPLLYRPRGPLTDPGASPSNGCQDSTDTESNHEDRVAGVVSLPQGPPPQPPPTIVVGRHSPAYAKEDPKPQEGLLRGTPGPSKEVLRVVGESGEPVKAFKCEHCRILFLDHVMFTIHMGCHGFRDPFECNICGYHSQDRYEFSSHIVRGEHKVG
T4 sequence (Q96SW2 whole entry): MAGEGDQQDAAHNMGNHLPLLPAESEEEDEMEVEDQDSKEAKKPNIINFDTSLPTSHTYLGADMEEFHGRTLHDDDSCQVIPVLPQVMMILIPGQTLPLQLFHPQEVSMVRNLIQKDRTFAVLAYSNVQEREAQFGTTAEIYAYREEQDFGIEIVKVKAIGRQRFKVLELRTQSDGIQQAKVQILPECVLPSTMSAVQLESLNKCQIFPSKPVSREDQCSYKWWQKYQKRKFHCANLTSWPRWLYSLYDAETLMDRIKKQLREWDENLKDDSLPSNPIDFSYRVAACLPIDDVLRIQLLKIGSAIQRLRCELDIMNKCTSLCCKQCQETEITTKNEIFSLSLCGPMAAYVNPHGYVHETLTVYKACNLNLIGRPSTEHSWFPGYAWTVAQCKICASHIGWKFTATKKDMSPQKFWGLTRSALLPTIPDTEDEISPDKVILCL
T4 sequence (Q16531 whole entry partner): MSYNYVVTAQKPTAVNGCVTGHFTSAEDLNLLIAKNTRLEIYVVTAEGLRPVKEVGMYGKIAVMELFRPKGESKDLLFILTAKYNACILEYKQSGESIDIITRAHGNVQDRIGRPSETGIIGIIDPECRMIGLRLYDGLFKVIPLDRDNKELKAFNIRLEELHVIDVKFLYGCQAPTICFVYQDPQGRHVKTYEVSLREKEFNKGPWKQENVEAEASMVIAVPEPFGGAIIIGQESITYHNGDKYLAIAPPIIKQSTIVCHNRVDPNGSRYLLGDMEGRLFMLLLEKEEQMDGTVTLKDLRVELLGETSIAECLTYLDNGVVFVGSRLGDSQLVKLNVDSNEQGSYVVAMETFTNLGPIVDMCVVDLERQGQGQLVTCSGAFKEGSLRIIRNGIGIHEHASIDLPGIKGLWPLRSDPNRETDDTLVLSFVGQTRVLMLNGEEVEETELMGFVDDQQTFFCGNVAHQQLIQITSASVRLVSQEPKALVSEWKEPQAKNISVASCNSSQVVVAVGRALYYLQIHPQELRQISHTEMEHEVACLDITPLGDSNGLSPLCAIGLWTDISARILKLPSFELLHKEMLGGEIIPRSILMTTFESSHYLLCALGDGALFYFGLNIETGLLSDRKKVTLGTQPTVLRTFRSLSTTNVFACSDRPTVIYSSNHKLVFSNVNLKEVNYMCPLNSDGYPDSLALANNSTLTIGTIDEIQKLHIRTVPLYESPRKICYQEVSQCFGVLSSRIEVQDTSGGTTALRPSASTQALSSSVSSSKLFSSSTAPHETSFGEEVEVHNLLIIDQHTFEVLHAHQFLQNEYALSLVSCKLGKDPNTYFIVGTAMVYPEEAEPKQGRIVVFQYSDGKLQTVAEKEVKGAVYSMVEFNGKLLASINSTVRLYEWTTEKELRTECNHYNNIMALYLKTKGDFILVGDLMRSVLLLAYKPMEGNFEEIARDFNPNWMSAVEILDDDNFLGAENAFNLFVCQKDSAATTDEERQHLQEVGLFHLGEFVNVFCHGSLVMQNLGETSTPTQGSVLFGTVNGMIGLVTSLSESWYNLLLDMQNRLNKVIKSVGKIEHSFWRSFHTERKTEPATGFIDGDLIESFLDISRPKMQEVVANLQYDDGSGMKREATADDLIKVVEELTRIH
As to the kind of experiment: Human Regulatory T Cell Degradation Assay. Particulars: human regulatory T cells, 20 hours; for DC50: vs DMSO alone.

Where “and” joins values, the source holds several entries; their conditions need not be identical. Identical values can stand only once.

The results in this text go back to patent EP4568957B1, “SUBSTITUTED PHENYL OXOOXAZOLYL PIPERIDINE DIONE COMPOUNDS” (Bristol-Myers Squibb Company, priority 2023, dated 2025).

T1 sequence (Q13422 whole entry): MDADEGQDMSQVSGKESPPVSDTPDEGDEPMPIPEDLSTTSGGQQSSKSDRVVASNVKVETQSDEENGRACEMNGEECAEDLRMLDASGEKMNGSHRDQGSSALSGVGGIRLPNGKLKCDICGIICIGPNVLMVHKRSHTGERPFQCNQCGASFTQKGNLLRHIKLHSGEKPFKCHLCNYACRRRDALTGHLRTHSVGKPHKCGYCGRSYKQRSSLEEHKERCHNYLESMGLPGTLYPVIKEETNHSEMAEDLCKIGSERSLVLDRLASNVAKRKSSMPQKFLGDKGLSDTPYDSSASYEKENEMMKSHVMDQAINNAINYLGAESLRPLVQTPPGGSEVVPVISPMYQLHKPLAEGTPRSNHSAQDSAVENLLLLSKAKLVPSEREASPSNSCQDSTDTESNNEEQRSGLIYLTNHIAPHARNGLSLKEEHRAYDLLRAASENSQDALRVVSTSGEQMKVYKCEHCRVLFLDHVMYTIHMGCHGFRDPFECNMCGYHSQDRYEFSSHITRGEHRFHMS
T1 sequence (Q96SW2 whole entry): as the sequence (Q96SW2 whole entry) above
T1 sequence (Q16531 whole entry partner): as the sequence (Q16531 whole entry partner) above
T3 sequence (Q9UKS7 whole entry): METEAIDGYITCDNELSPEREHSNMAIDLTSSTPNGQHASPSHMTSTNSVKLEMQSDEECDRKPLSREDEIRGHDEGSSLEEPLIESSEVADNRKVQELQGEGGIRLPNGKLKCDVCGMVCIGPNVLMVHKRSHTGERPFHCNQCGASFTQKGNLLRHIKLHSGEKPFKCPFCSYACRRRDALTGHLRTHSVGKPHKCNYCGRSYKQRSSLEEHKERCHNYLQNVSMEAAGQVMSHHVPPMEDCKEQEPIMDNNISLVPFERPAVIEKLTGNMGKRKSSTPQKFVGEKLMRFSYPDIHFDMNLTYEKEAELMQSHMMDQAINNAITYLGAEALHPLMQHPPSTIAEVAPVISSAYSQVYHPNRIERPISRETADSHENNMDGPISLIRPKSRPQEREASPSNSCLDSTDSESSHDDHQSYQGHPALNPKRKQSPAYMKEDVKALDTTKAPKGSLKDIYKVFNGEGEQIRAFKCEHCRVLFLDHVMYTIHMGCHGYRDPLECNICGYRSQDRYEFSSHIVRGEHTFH
T3 sequence (Q96SW2 whole entry): as the sequence (Q96SW2 whole entry) above
T3 sequence (Q16531 whole entry partner): as the sequence (Q16531 whole entry partner) above
T2 sequence (Q9UKT9 whole entry): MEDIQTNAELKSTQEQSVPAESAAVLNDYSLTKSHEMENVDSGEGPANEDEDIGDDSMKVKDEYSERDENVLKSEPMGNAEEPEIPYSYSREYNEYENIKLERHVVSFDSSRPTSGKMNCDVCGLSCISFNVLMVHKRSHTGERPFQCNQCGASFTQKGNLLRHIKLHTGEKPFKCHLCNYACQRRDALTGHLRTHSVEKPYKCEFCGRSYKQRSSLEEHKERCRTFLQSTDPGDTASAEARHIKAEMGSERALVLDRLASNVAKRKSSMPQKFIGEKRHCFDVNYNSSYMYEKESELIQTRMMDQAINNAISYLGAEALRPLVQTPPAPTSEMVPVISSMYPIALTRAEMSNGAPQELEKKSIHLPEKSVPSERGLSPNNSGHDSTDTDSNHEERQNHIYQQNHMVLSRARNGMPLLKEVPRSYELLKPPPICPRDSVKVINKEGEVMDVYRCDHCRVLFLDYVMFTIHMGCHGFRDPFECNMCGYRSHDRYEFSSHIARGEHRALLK
T2 sequence (Q96SW2 whole entry): as the sequence (Q96SW2 whole entry) above
T2 sequence (Q16531 whole entry partner): as the sequence (Q16531 whole entry partner) above

One may read the DC50 as the concentration at which degradation of the target reaches its halfway point. Lower therefore signals a more potent degrader. `CO[C@H]1C[C@H](Oc2c(C)cc(-c3ccc(-c4cn(C5CCC(=O)NC5=O)c(=O)o4)c(F)c3)nc2N)C1` (relative stereo) [Example 2, trans 3-(5-(4-(6-amino-5-(3-methoxycyclobutoxy)-4-methylpyridin-2-yl)-2-fluorophenyl)-2-oxooxazol-3(2H)-yl)piperidine-2,6-dione]: the “IKZF1 Ikaros max % deg. observed” value on IKZF1 Ikaros [1] stood at 56%. Moreover, the DC50 is 950 nM at IKZF1 Ikaros [1]; above 100000 nM on IKZF3 Aiolos [2]; 4380 nM at IKZF1 Ikaros [3]; 37 nM on IKZF2 Helios [4] (Jurkat cells, 24 h); 2320 nM at IKZF3 Aiolos [5]; 71 nM on IKZF2 Helios [6]. Moreover, half-maximal degradation at IKZF4 Eos (DC50) was put at 193 nM. Also, at IKZF3 Aiolos [2], the “IKZF3 Aiolos max % deg. observed” value came to 25%. The “IKZF2** Helios max % deg. observed” value on IKZF2 Helios [4] is 92%. In addition, on IKZF2 Helios [6], the “IKZF2 Helios max % deg. observed” value came to 98%. For the same molecule, on IKZF4 Eos, the “IKZF4 Eos max % deg. observed” value was 62%.
Turning to `CC1(C)Cc2cc(-c3ccc(-c4cn(C5CCC(=O)NC5=O)c(=O)o4)c(F)c3)nc(N)c2O1` (stereo not drawn) [Example 1, 3-(5-(4-(7-amino-2,2-dimethyl-2,3-dihydrofuro[2,3-c]pyridin-5-yl)-2-fluorophenyl)-2-oxooxazol-3(2H)-yl)piperidine-2,6-dione], the “IKZF1 Ikaros max % deg. observed” value on IKZF1 Ikaros [1] came out at 51%; at IKZF1 Ikaros [3] it was 63%. The DC50 on IKZF1 Ikaros [1] is 8230 nM; on IKZF3 Aiolos [2] it was above 10000 nM; at IKZF1 Ikaros [3], 1510 nM; on IKZF2 Helios [4] (Jurkat cells, 24 h), 22 nM; at IKZF3 Aiolos [5] it was 600 nM; at IKZF2 Helios [6], 52 nM. The molecule further registered a DC50 at IKZF4 Eos of 55 nM. For the same molecule, the “IKZF3 Aiolos max % deg. observed” value on IKZF3 Aiolos [2] is 22%; on IKZF3 Aiolos [5], 55%. Besides, the “IKZF2** Helios max % deg. observed” value on IKZF2 Helios [4] came out at 89%. Moreover, on IKZF2 Helios [6], the “IKZF2 Helios max % deg. observed” value is on record as 98%. In addition, the “IKZF4 Eos max % deg. observed” value on IKZF4 Eos is given as 56%.
Take `COC1CCN(Cc2ccc(-c3ccc(-c4cn(C5CCC(=O)NC5=O)c(=O)o4)c(F)c3)nc2N)CC1` (stereo not drawn) [Example 4, 3-(5-(4-(6-amino-5-((4-methoxypiperidin-1-yl)methyl)pyridin-2-yl)-2-fluorophenyl)-2-oxooxazol-3(2H)-yl)piperidine-2,6-dione]: the “IKZF1 Ikaros max % deg. observed” value was 67% at IKZF1 Ikaros [1] and 69% on IKZF1 Ikaros [3]. The DC50 at IKZF1 Ikaros [1] is 3790 nM; on IKZF3 Aiolos [2], above 10000 nM; on IKZF1 Ikaros [3] it was 1200 nM; on IKZF2 Helios [4] (Jurkat cells, 24 h), 34 nM; on IKZF3 Aiolos [5], 3010 nM; at IKZF2 Helios [6], 59 nM. Further, on IKZF4 Eos, the half-maximal degradation concentration (DC50) was 203 nM. The “IKZF3 Aiolos max % deg. observed” value at IKZF3 Aiolos [2] is recorded as 35%; at IKZF3 Aiolos [5], 61%. Further, the “IKZF2** Helios max % deg. observed” value on IKZF2 Helios [4] worked out at 91%. Moreover, the “IKZF2 Helios max % deg. observed” value at IKZF2 Helios [6] is 98%. Besides, the “IKZF4 Eos max % deg. observed” value at IKZF4 Eos stood at 62%.
As to `O=C1CCC(n2cc(-c3ccccc3)oc2=O)C(=O)N1` (stereo not drawn) [Comparative Compound A, 3-(2-oxo-5-phenyloxazol-3(2H)-yl)piperidine-2,6-dione, reference compound], at IKZF1 Ikaros [3], the DC50 came out at 1520 nM and the “IKZF1 Ikaros max % deg. observed” value was 70%. The 50% degradation concentration (DC50) on IKZF2 Helios [4] (Jurkat cells, 24 h) was above 10000 nM. The “IKZF2** Helios max % deg. observed” value on IKZF2 Helios [4] worked out at 27%. At IKZF3 Aiolos [5], the DC50 was above 10000 nM and the “IKZF3 Aiolos max % deg. observed” value is reported as 52%.
On to `O=C1CCC(n2cc(-c3ccc(Br)cc3F)oc2=O)C(=O)N1` (stereo not drawn) [Comparative Compound B, 3-(5-(4-bromo-2-fluorophenyl)-2-oxooxazol-3(2H)-yl)piperidine-2,6-dione, reference compound], for which, at IKZF1 Ikaros [3], the DC50 is above 10000 nM and the “IKZF1 Ikaros max % deg. observed” value came out at 24%. This molecule also returned a DC50 on IKZF2 Helios [4] (Jurkat cells, 24 h) above 10000 nM. Further, the “IKZF2** Helios max % deg. observed” value on IKZF2 Helios [4] was 11%. Moreover, on IKZF3 Aiolos [5], the DC50 is above 10000 nM and the “IKZF3 Aiolos max % deg. observed” value is 25%.
On to `Cc1cc(-c2ccc(-c3cn(C4CCC(=O)NC4=O)c(=O)o3)c(F)c2)nc(N)c1NCC1CCOCC1` (stereo not drawn) [Example 3, 3-(5-(4-(6-amino-4-methyl-5-(((tetrahydro-2H-pyran-4-yl)methyl)amino)pyridin-2-yl)-2-fluorophenyl)-2-oxooxazol-3(2H)-yl)piperidine-2,6-dione], for which the “IKZF1 Ikaros max % deg. observed” value on IKZF1 Ikaros [1] was 58%; at IKZF1 Ikaros [3], 64% and 57%. Moreover, the DC50 was 6470 nM on IKZF1 Ikaros [1]; above 10000 nM on IKZF3 Aiolos [2]; 5600 nM on IKZF1 Ikaros [3]; 36 nM at IKZF2 Helios [4] (Jurkat cells, 24 h); 9490 nM at IKZF3 Aiolos [5]; 51 nM on IKZF2 Helios [6]. The molecule further came in with a DC50 on IKZF4 Eos of 141 nM. Also, the “IKZF3 Aiolos max % deg. observed” value was 25% at IKZF3 Aiolos [2]; 48% and 54% at IKZF3 Aiolos [5]. Also, at IKZF2 Helios [4], the “IKZF2** Helios max % deg. observed” value stood at 92%. On IKZF2 Helios [6], the “IKZF2 Helios max % deg. observed” value was 98%. In addition, the “IKZF4 Eos max % deg. observed” value on IKZF4 Eos is given as 59%.
Consider `Cc1cc(-c2ccc(-c3cn(C4CCC(=O)NC4=O)c(=O)o3)c(F)c2)nc(N)c1COC1CCOCC1` (stereo not drawn) [Example 5, 3-(5-(4-(6-Amino-4-methyl-5-(((tetrahydro-2H-pyran-4-yl)oxy)methyl)pyridin-2-yl)-2-fluorophenyl)-2-oxooxazol-3(2H)-yl)piperidine-2,6-dione], for which the “IKZF1 Ikaros max % deg. observed” value turned out to be 52% at IKZF1 Ikaros [1] and 51% at IKZF1 Ikaros [3]. Besides, the DC50 on IKZF1 Ikaros [1] was 6500 nM; on IKZF3 Aiolos [2], above 10000 nM; at IKZF1 Ikaros [3], 7900 nM; at IKZF2 Helios [4] (Jurkat cells, 24 h), 50 nM; at IKZF3 Aiolos [5] it was above 10000 nM; at IKZF2 Helios [6], 46 nM. The same molecule came in with a 50% degradation concentration (DC50) at IKZF4 Eos of 575 nM. Besides, the “IKZF3 Aiolos max % deg. observed” value was 29% on IKZF3 Aiolos [2] and 38% at IKZF3 Aiolos [5]. The “IKZF2 Helios max % deg. observed” value at IKZF2 Helios [4] (Jurkat cells, 24 h, 100% = complete degradation) came out at 92%; on IKZF2 Helios [6] it was 98%. Also, the “IKZF2** Helios max % deg. observed” value on IKZF2 Helios [4] is listed as 92%. Moreover, the “IKZF4 Eos max % deg. observed” value at IKZF4 Eos is reported as 67%.
